The record followed here is patent publication US10125098B2, “Therapeutic compounds and methods of use thereof” (GENENTECH, INC., priority 2014, dated 2018).

The target in one data set is T1, hNav1.7 (Homo sapiens, UniProt Q15858).
T1 construct: expressed in transfected cells
As to the kind of experiment: Tritiated compound binding (LBA) to membranes from cells expressing hNav1.7 and the β1 subunit, competitive binding. To be noted: competitive binding vs 100 pM [3H]compound, 18 h, room temperature, membranes with hNav1.7 and β1 subunit. The method, boiled down: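 Competitive displacement of 100 pM [3H]compound (tritiated methyl analogue of formula (I)) from hNav1.7/β1 membranes, 18 h at room temperature in NaCl/Tris pH 7.4 buffer containing 0.01% BSA. 1 μM unlabeled compound set non-specific binding. Bound label quantified by scintillation after filtration; 4-parameter fit gave IC50.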

The next data set has as its target T2, human NaV1.7 (Homo sapiens, UniProt Q15858).
T2 construct: permanently transfected with an expression vector containing the full-length cDNA coding for the desired human sodium channel α-subunit; expressed in transfected cells; host or cells: HEK-293
Nature of the data set: Patch voltage clamp electrophysiology assay (EP), NaV1.7. Format: cell-based. To be noted: HEK-293 cells stably expressing NaV1.7 with β1 subunit; whole-cell patch clamp, membrane potential −60 mV (inactivated state). Summed up: (§1)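 Percent block is the drop in sodium current after compound wash-on, measured by a test pulse following 20 ms at −150 mV from a −60 mV inactivating holding potential.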

A further data set deals with T3, NaV1.5 (Homo sapiens, UniProt Q14524).
T3 construct: permanently transfected with an expression vector containing the full-length cDNA coding for the desired human sodium channel α-subunit; expressed in transfected cells; host or cells: HEK-293
T3 sequence (Q14524 whole entry): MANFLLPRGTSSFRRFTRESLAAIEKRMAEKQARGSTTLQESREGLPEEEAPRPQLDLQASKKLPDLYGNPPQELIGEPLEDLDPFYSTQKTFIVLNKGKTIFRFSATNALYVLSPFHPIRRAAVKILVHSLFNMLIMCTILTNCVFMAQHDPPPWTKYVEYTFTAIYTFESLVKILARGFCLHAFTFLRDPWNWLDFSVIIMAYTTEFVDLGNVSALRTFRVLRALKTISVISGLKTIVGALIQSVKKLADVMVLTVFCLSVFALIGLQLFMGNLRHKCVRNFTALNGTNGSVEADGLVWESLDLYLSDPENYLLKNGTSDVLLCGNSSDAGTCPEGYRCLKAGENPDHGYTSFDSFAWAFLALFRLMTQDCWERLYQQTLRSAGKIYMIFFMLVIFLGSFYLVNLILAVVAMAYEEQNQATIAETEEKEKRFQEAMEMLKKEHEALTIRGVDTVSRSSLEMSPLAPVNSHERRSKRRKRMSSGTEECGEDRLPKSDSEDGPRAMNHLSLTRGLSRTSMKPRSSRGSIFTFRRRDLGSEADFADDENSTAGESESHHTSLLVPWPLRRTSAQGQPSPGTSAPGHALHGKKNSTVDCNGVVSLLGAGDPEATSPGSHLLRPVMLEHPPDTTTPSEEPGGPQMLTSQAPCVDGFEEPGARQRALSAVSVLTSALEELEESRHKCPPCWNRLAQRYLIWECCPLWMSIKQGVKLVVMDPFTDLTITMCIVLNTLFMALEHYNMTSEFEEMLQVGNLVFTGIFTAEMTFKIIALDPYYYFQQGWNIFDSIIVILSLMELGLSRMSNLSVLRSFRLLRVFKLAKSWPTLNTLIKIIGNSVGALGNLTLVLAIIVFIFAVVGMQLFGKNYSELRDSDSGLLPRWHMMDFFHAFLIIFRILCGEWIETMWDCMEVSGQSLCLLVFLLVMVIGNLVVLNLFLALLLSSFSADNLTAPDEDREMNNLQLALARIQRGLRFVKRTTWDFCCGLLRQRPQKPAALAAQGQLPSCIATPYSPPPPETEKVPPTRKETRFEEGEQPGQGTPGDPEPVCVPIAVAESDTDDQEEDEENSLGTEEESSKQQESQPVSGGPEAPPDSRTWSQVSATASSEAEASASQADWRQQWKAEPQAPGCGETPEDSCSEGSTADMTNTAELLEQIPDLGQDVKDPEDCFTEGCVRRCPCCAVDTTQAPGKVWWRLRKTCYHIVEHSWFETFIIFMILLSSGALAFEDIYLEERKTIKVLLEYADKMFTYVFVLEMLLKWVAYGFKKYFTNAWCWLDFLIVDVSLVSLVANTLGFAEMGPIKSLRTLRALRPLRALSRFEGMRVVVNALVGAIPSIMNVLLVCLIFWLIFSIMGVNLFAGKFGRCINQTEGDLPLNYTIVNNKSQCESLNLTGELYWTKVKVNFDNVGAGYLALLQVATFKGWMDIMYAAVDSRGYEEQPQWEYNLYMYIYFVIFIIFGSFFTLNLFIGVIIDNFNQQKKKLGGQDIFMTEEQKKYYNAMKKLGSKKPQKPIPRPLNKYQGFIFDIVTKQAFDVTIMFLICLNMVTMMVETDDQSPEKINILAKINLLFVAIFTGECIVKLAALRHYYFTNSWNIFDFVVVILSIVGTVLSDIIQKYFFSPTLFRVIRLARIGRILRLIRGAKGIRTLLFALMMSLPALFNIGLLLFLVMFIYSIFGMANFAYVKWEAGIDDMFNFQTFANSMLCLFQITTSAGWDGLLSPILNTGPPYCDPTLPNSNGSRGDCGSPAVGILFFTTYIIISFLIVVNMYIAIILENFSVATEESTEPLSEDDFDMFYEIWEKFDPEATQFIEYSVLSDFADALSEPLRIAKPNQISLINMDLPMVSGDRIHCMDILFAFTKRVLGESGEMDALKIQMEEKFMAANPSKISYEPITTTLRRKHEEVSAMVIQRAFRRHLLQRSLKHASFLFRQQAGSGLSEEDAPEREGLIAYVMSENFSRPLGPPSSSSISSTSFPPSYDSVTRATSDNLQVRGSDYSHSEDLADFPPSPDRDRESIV
As to the kind of experiment: Patch voltage clamp electrophysiology assay (EP), NaV1.5. In kind it is cell-based. The method, boiled down:
as §1

The mark [1] stands for this setting: HEK-293 cells stably expressing NaV1.5 with β1 subunit, whole-cell patch clamp, membrane potential −60 mV (inactivated state), read-out: Nav1.5.
The mark [2] stands for this setting: human, HEK-293 cells stably expressing human NaV1.5 with β1 subunit, pH 7.4, HEK-293 cells stably expressing NaV1.5 with β1 subunit, whole-cell patch clamp, membrane potential −60 mV (inactivated state).

Like-named read-outs stand apart in the source and are kept apart here.

T2 sequence (Q15858 1-1977 isoform Q15858-3): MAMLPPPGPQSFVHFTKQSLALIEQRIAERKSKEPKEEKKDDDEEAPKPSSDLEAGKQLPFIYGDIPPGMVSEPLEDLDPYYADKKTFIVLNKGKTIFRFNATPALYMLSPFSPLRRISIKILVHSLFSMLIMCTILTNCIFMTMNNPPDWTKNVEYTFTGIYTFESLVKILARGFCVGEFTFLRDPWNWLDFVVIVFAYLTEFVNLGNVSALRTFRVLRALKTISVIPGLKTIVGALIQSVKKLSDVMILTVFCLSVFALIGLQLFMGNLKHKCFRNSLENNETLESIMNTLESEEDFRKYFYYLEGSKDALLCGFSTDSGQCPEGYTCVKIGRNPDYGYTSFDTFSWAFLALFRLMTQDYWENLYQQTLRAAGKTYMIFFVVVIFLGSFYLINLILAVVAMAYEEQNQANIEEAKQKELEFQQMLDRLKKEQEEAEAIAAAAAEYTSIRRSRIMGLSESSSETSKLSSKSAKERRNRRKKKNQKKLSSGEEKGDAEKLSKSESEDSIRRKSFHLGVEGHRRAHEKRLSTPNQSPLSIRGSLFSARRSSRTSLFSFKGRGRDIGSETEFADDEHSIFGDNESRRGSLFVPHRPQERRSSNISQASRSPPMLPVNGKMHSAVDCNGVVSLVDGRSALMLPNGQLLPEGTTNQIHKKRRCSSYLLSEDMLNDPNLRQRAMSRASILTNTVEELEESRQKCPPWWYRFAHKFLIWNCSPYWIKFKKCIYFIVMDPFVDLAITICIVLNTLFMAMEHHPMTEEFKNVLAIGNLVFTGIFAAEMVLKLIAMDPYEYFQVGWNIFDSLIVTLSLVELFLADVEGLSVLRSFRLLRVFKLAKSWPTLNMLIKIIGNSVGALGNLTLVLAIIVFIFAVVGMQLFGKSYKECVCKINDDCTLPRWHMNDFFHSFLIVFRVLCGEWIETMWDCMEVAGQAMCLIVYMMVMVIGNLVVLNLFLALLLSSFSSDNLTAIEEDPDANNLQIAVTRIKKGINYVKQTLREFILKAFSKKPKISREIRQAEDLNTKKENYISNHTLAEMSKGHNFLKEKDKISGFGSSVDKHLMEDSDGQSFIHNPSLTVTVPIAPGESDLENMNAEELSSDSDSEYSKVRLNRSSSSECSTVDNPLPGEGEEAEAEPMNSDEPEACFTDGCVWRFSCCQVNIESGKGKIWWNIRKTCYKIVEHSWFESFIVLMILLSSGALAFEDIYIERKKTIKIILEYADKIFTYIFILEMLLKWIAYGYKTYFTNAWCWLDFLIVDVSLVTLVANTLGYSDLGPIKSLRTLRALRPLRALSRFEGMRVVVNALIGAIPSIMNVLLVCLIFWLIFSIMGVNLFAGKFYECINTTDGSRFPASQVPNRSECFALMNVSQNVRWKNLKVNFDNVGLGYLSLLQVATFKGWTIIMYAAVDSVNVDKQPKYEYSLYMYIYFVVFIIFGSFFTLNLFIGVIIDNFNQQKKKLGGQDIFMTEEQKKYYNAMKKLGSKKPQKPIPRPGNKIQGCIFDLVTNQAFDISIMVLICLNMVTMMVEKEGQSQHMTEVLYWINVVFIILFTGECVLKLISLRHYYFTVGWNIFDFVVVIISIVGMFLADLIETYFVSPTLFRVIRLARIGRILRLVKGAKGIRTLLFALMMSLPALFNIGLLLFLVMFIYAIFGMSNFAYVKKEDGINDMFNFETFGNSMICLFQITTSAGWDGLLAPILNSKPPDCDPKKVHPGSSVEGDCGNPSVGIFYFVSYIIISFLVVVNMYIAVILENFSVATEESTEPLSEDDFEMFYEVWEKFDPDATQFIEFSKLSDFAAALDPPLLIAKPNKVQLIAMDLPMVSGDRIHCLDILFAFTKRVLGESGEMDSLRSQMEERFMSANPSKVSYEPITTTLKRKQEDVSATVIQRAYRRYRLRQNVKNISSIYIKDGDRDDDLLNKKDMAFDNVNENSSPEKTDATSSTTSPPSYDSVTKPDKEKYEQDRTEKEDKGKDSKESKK
T2 sequence (Q07699 19-218 partner): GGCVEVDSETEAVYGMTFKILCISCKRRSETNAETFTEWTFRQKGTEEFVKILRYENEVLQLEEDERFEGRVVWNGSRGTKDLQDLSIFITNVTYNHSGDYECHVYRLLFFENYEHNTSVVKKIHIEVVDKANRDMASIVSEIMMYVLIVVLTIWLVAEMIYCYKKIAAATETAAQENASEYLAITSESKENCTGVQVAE
T1 sequence (Q15858 1-1977 isoform Q15858-3): as the sequence (Q15858 1-1977 isoform Q15858-3) above
T1 sequence (Q07699 19-218 partner): as the sequence (Q07699 19-218 partner) above

On to `O=C(c1cc(C2CC2)c(OCC23CC4CC(CC(C4)C2)C3)cc1F)N1C[C@H](F)C[C@H]1C(O)(C(F)(F)F)C(F)(F)F` [Example 201, (4-(adamantan-1-ylmethoxy)-5-cyclopropyl-2-fluorophenyl)((2S,4R)-4-fluoro-2-(1,1,1,3,3,3-hexafluoro-2-hydroxypropan-2-yl)pyrrolidin-1-yl)methanone], for which the results for the IC50 on hNav1.7, against human NaV1.7 and at NaV1.5 (setting [1]) were at least 10 µM, 13 µM and 24 µM, respectively.
The matching figures for `CC1(C)[C@@H]2[C@@H](C(=O)O)N(C(=O)c3cc(C4CC4)c(OCC45CC6CC(CC(C6)C4)C5)cc3F)C[C@@H]21` [Example 202, (1R,2S,5S)-3-(4-(adamantan-1-ylmethoxy)-5-cyclopropyl-2-fluorobenzoyl)-6,6-dimethyl-3-azabicyclo[3.1.0]hexane-2-carboxylic acid]: 1.9 µM, 4.4 µM and 16 µM.
On to `O=C(O)[C@@H]1C=C(C(F)(F)F)CN1C(=O)c1cc(C2CC2)c(OCC23CC4CC(CC(C4)C2)C3)cc1F` [Example 203], for which the IC50 at hNav1.7 was at least 10 µM; against human NaV1.7 it was 10 µM; at NaV1.5 (setting [1]) it was 19 µM.
As to `O=C(O)[C@@H]1C[C@@H](F)CN1C(=O)c1c(F)cc(OCC23CC4CC(CC(C4)C2)C3)cc1C1CC1` [Example 204, (2S,4R)-1-(4-(adamantan-1-ylmethoxy)-2-cyclopropyl-6-fluorobenzoyl)-4-fluoropyrrolidine-2-carboxylic acid], the IC50 came out at 0.56 µM at hNav1.7, 7.8 µM on human NaV1.7 and 23 µM on NaV1.5 (setting [1]).
`CO[C@H]1CN(C(=O)c2cc(C3CC3)c(OCC34CC5CC(CC(C5)C3)C4)cc2F)[C@H](C(=O)O)C1C` (stereo partly drawn) [Example 205, (2S,4R)-1-(4-(adamantan-1-ylmethoxy)-5-cyclopropyl-2-fluorobenzoyl)-4-methoxy-3-methylpyrrolidine-2-carboxylic acid]: the IC50 at hNav1.7 came out at 0.17 µM; on human NaV1.7 it was 2.2 µM; at NaV1.5 (setting [1]), 25 µM.
As to `O=C(O)C[C@@H]1CCCN1C(=O)c1cc(C2CC2)c(OCC23CC4CC(CC(C4)C2)C3)cc1F` [Example 206, 2-((S)-1-(4-(adamantan-1-ylmethoxy)-5-cyclopropyl-2-fluorobenzoyl)pyrrolidin-2-yl)acetic acid], the IC50 on hNav1.7 was 0.26 µM; at human NaV1.7, 2.6 µM; on NaV1.5 (setting [1]), 16 µM.
Consider `CO[C@@H]1CN(C(=O)c2cc(C3CC3)c(OCC34CC5CC(CC(C5)C3)C4)cc2F)[C@H](C(=O)O)[C@H]1C` [Example 207, (2S,3R,4S)-1-(4-(adamantan-1-ylmethoxy)-5-cyclopropyl-2-fluorobenzoyl)-4-methoxy-3-methylpyrrolidine-2-carboxylic acid], for which the values for the IC50 at hNav1.7, against human NaV1.7 and on NaV1.5 (setting [1]) were 0.036 µM, 0.38 µM and 16 µM, respectively.
For the compound `CC1[C@H](O)CN(C(=O)c2cc(C3CC3)c(OCC3(F)CCN([C@@H](C)c4cc(Cl)cc(Cl)c4)CC3)cc2F)[C@@H]1C(=O)O` (stereo partly drawn) [Example 208, (2S,4S)-1-(5-Cyclopropyl-4-((1-((S)-1-(3,5-dichlorophenyl)ethyl)-4-fluoropiperidin-4-yl)methoxy)-2-fluorobenzoyl)-4-hydroxy-3-methylpyrrolidine-2-carboxylic acid], the values for the IC50 at hNav1.7, at human NaV1.7 and at NaV1.5 (setting [1]) were 0.082 µM, 0.21 µM and 16 µM, respectively.
Consider `CC1[C@@H](C(=O)O)N(C(=O)c2cc(C3CC3)c(OCC3(F)CCN([C@@H](C)c4cc(Cl)cc(Cl)c4)CC3)cc2F)C[C@@H]1F` (stereo partly drawn) [Example 209, (2S,4R)-1-(5-cyclopropyl-4-((1-((S)-1-(3,5-dichlorophenyl)ethyl)-4-fluoropiperidin-4-yl)methoxy)-2-fluorobenzoyl)-4-fluoro-3-methylpyrrolidine-2-carboxylic acid], for which the results for the IC50 at hNav1.7, against human NaV1.7 and at NaV1.5 (setting [1]) were 0.2 µM, 0.7 µM and 20 µM, respectively.
In the case of `C[C@@H]1[C@H](F)CN(C(=O)c2cc(C3CC3)c(OCC34CC5CC(CC(C5)C3)C4)cc2F)[C@@H]1C(=O)O` [Example 210a, (2S,3S,4S)-1-(4-(adamantan-1-ylmethoxy)-5-cyclopropyl-2-fluorobenzoyl)-4-fluoro-3-methylpyrrolidine-2-carboxylic acid], the IC50 at hNav1.7 was determined as 0.22 µM; against human NaV1.7, 1.9 µM; on NaV1.5 (setting [1]) it was 27 µM.
In the case of `C[C@H]1[C@H](F)CN(C(=O)c2cc(C3CC3)c(OCC34CC5CC(CC(C5)C3)C4)cc2F)[C@@H]1C(=O)O` [Example 210b, (2S,3R,4S)-1-(4-(adamantan-1-ylmethoxy)-5-cyclopropyl-2-fluorobenzoyl)-4-fluoro-3-methylpyrrolidine-2-carboxylic acid], the IC50 at hNav1.7 was 0.03 µM; on human NaV1.7 it was 0.81 µM; on NaV1.5 (setting [1]) it was 17 µM.
For `O=C(O)[C@@H]1C[C@H](C(F)(F)F)CN1C(=O)c1cc(C2CC2)c(OCC23CC4CC(CC(C4)C2)C3)cc1F` [Example 211, (2S,4S)-1-(4-((adamantan-1-yl)methoxy)-5-cyclopropyl-2-fluorobenzoyl)-4-(trifluoromethyl)pyrrolidine-2-carboxylic acid] the same measures were 2.3 µM, 6.7 µM and 14 µM.
The matching figures for `O=C(c1cc(C2CC2)c(OCC23CC4CC(CC(C4)C2)C3)cc1F)N1CCC2CC21C(=O)O` (stereo not drawn) [Example 212, 2-(4-((Adamantan-1-yl)methoxy)-5-cyclopropyl-2-fluorobenzoyl)-2-azabicyclo[3.1.0]hexane-1 carboxylicacid]: 0.29 µM, 3.5 µM and 17 µM.
With `O=C(O)[C@@H]1CC(O)(C(F)(F)F)CN1C(=O)c1cc(C2CC2)c(OCC23CC4CC(CC(C4)C2)C3)cc1F` (stereo partly drawn) [Example 213, (2S)-1-(4-((adamantan-1-yl)methoxy)-5-cyclopropyl-2-fluorobenzoyl)-4-hydroxy-4-(trifluoromethyl)pyrrolidine-2-carboxylic acid], the IC50 was 5.3 µM on hNav1.7, 3.4 µM on human NaV1.7 and 7.6 µM at NaV1.5 (setting [1]).
Turning to `COC1(C(F)(F)F)C[C@@H](C(=O)O)N(C(=O)c2cc(C3CC3)c(OCC34CC5CC(CC(C5)C3)C4)cc2F)C1` (stereo partly drawn) [Example 214, (2S)-1-(4-((Adamantan-1-yl)methoxy)-5-cyclopropyl-2-fluorobenzoyl)-4-methoxy-4-(trifluoromethyl)pyrrolidine-2-carboxylic acid], the IC50 on hNav1.7 turned out to be 9.7 µM; against human NaV1.7, 8.2 µM; on NaV1.5 (setting [1]) it was 11 µM.
`O=C(O)C[C@@H]1CCN1C(=O)c1cc(C2CC2)c(OCC23CC4CC(CC(C4)C2)C3)cc1F` [Example 215, 2-((S)-1-(4-((adamantan-1-yl)methoxy)-5-cyclopropyl-2-fluorobenzoyl)azetidin-2-yl)acetic acid]: the IC50 on hNav1.7 was 1.1 µM; on human NaV1.7 it was 5.4 µM; at NaV1.5 (setting [2]) it was at least 30 µM.
The matching figures for `CC(C)[C@H](NC(=O)c1cc(C2CC2)c(OCC2(F)CCN(Cc3cc(Cl)cc(C(F)(F)F)c3)CC2)cc1F)C(=O)O` [Example 216, (4-((1-(3-Chloro-5-(trifluoromethyl)benzyl)-4-fluoropiperidin-4-yl)methoxy)-5-cyclopropyl-2-fluorobenzoyl)-L-valine]: 0.6 µM, 8.6 µM and at least 30 µM.
In the case of `CC1(O)C[C@@H](C(=O)O)N(C(=O)c2cc(C3CC3)c(OCC34CC5CC(CC(C5)C3)C4)cc2F)C1` (stereo partly drawn) [Example 218, (2S)-1-(4-(adamantan-1-ylmethoxy)-5-cyclopropyl-2-fluorobenzoyl)-4-hydroxy-4-methylpyrrolidine-2-carboxylic acid], the IC50 came to 0.23 µM on hNav1.7, 1.6 µM on human NaV1.7 and 24 µM at NaV1.5 (setting [1]).
As for `C[C@@H]1[C@@H](C(=O)O)N(C(=O)c2cc(C3CC3)c(OCC34CC5CC(CC(C5)C3)C4)cc2F)C[C@@H]1F` [Example 219, (2S,3R,4R)-1-(4-(adamantan-1-ylmethoxy)-5-cyclopropyl-2-fluorobenzoyl)-4-fluoro-3-methylpyrrolidine-2-carboxylic acid], the IC50 at hNav1.7 came to 0.0064 µM; at human NaV1.7 it was 0.26 µM; on NaV1.5 (setting [1]) it was 12 µM.
Regarding `O=C(O)[C@@H]1C[C@@H](F)CN1C(=O)c1cc(C2CC2)c(OCC2CCN(Cc3noc(-c4ccccc4Cl)n3)CC2)cc1F` [Example 220, (2S, 4R)-1-(4-((1-((5-(2-chlorophenyl)-1,2,4-oxadiazol-3-yl)methyl)piperidin-4-yl)methoxy)-5-cyclopropyl-2-fluorobenzoyl)-4-fluoropyrrolidine-2-carboxylic acid], the IC50 on hNav1.7 was 0.16 µM; against human NaV1.7, 0.83 µM; against NaV1.5 (setting [2]) it was at least 30 µM.
On to `O=C(O)[C@@H]1CC2(CC2)CN1C(=O)c1cc(C2CC2)c(OCC2(F)CCN(Cc3cc(C(F)(F)F)ccc3Cl)CC2)cc1F` [Example 221, (S)-5-(4-((1-(2-chloro-5-(trifluoromethyl)benzyl)-4-fluoropiperidin-4-yl)methoxy)-5-cyclopropyl-2-fluorobenzoyl)-5-azaspiro[2.4]heptane-6-carboxylic acid], for which the IC50 came to 0.5 µM at hNav1.7, 1.1 µM against human NaV1.7 and 16 µM against NaV1.5.
